In patent US20260123631A1, “NATURAL PORPHIN SALT AND USE THEREOF AS PLANT GROWTH REGULATOR AND PLANT IMMUNITY INDUCER” (NANJING BOSTEC BIOLOGICAL ENGINEERING CO., LTD, priority 2022, published 2026):

Legend:
[1] = Dilution and pH determination for sample solutions; format: physicochemical
Experimental: Method: 0.2500 g of a sample was accurately weighed and added to a 25 mL volumetric flask, dissolved with purified water, and diluted to a specified scale to prepare a 1.00% (10,000.0 ppm) initial solution. The initial solution was diluted with purified water in different ratios to prepare a series of solutions with a concentration of 1,000.0 ppm to 0.1 ppm. A pH value of each sample was determined three times.

mung bean seedlings = assay: Inducing adventitious roots from hypocotyls of mung bean; format: in vivo; conditions: day 7
Experimental: Test solution preparation: 8 mL of a commercially-available STANLEY universal hydroponic nutrient solution was taken and diluted with tap water to 3,200 mL (400-fold dilution) to produce a dilute nutrient solution. An appropriate amount of each of salt samples such as protoporphyrin disodium and potassium chlorhematin was weighed and prepared with the dilute nutrient solution into 0.010 ppm and 0.1 ppm sample test solutions, and 150 mL of each test solution was taken. 150 mL of the dilute nutrient solution was taken as a blank control. The test solutions and the control solution were placed in brown bottles, and the brown bottles were sealed with a black film. Mung bean seedlings with uniform growth and a seedling height of 7 cm to 8 cm were selected, and cut at 3 cm below a first true leaf node. 8 mung bean seedlings were inserted into each bottle (with roots removed) to make lower radicles soaked in a solution. Mung bean seedlings were treated at room temperature of 20° C. to 25° C. for 7 d in total, during which the solution was changed every 2 d. On day 2 to day 3 of the treatment, there was a significant difference. On day 7, the observation and determination were conducted. An average adventitious root number and an average total adventitious root length for each seedling were calculated, and results were shown in the following table: […]

pepper = assay: Spraying on pepper to increase a yield; format: in vivo, pepper (Hebei Jize pepper); conditions: for Average fruit number / Single-fruit weight / Yield per mu: 1.5 mg/mu sprayed twice (0.1 ppm and 0.05 ppm); for Yield increase rate: 1.5 mg/mu sprayed twice, versus clear water
Experimental: Experimental method: A land area of 10 mu was adopted for each of experimental and control groups. A treatment group was sprayed with a potassium hematin solution, a control group was sprayed with heme (at the same dose concentration as the treatment group), and a blank was sprayed with clear water. On May 19 (after transplanting) and July 2 (blooming stage), an agent was sprayed at 1.5 mg/mu in the treatment and control groups, with water amounts per mu respectively as follows: 15 L and 30 L (sample concentrations: 0.1 ppm and 0.05 ppm). On September 13, 10 pepper plants with uniform growth were selected from each of the treatment group and the control group, and fruit numbers and single-fruit weights were counted. The whole field was harvested in three batches on August 30, September 13, and September 25, respectively. Yields were subjected to combined statistics and comparison, and results were as follows: […]

[2] = Water solubility of the prepared salts; format: physicochemical
wheat = assay: Germination of wheat and growth of seedlings; format: in vivo, wheat (Huaimai 35); conditions: for Root length / Root number / Root weight / Seedling height / Seedling weight: wheat seedlings
Experimental: Method: 3 replicates were set for each treatment. 50 full seeds with a consistent size were selected each time for each sample, disinfected with sodium hypochlorite for 5 min, rinsed with clear water, and placed in a plastic box filled with 100 g of a sand. 25 mL of a prepared sample solution was poured into the plastic box, and the seeds were arranged regularly. The plastic box was covered with a lid, and then incubated in a 25° C. incubator. The germination was determined when a length of a sprout of a wheat seed exceeded a half of a diameter (long axis) of the wheat seed (determination criterion). According to the growth of wheat, the germ exposure of seeds and the number of germinated seeds were recorded every day. On day 6, 10 wheat seedlings were randomly selected, and a root length, a plant height, and a root number were determined. On day 7, a root weight and an aboveground part weight were determined. All index data was produced based on 3 replicates.

[3] = Stability of sample solutions in the dark/under light; format: physicochemical
Procedure, shortened: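 Salt in water, or acidic reference in 30–50% aqueous ethanol, at about 10 ppm; UV absorbance scanned 200–800 nm at 0, 1, 2, 3 h, stored at 25° C dark or under 30,000 lux light. Relative content = max-peak absorbance at each time divided by 0 h value (100%).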

[4] = under light 30,000 lux, 1 h, salts in water, acidic reference in 30% to 50% ethanol
[5] = under light 30,000 lux, 2 h, salts in water, acidic reference in 30% to 50% ethanol
[6] = under light 30,000 lux, 3 h, salts in water, acidic reference in 30% to 50% ethanol

Q: For `C=CC1=C(C)c2cc3[n-]c(cc4nc(cc5[n-]c(cc1n2)c(C)c5C=C)C(C)=C4CCC(=O)[O-])c(CCC(=O)[O-])c3C.[Cl-].[Fe+3].[K+].[K+]` [Example 10, potassium chlorhematin], which pH ([1]; 0.1 ppm in purified water) is on record?
A: (6.85)

Q: And the pH ([1]; 1.0 ppm in purified water)?
A: (6.90)

Q: What about the pH ([1]; 10.0 ppm in purified water) of the same compound?
A: (7.33)

Q: And the pH ([1]; 20.0 ppm in purified water)?
A: (7.45)

Q: What about the pH ([1]; 30.0 ppm in purified water) of the same compound?
A: (7.57)

Q: And the pH ([1]; 100.0 ppm in purified water)?
A: (8.10)

Q: And the pH ([1]; 1000.0 ppm in purified water)?
A: (9.43)

Q: What about the pH ([1]; 10000.0 ppm in purified water) of the same compound?
A: (10.21)

Q: And the Adventitious root number (mung bean seedlings; 0.01 ppm)?
A: 14.85 root/seedling

Q: What about the “Total adventitious root length” value (mung bean seedlings; 0.01 ppm) of the same compound?
A: 26.83 cm/seedling

Q: What about the Adventitious root number (mung bean seedlings; 0.1 ppm) of the same compound?
A: 14.02 root/seedling

Q: And the “Total adventitious root length” value (mung bean seedlings; 0.1 ppm)?
A: 25.21 cm/seedling

Q: What about the Average fruit number (pepper) of the same compound?
A: 50.5 fruits/plant

Q: What about the Single-fruit weight (pepper) of the same compound?
A: 18.5 g/fruit

Q: What about the Yield per mu (pepper) of the same compound?
A: 2975.0 kg/mu

Q: What about the Yield increase rate (pepper) of the same compound?
A: 10.59%

Q: What about the solubility in water [2] of the same compound?
A: easily soluble

Q: And the “Germination rate of wheat” value (wheat; 0.0025 ppm)?
A: 94.0%

Q: And the Root length (wheat; 0.0025 ppm)?
A: 10.01 cm

Q: And the Root number (wheat; 0.0025 ppm)?
A: 5.1

Q: And the Root weight (wheat; 0.0025 ppm)?
A: 0.1163 g

Q: What about the Seedling height (wheat; 0.0025 ppm) of the same compound?
A: 9.42 cm

Q: What about the Seedling weight (wheat; 0.0025 ppm) of the same compound?
A: 0.298 g

Q: And the “Germination rate of wheat” value (wheat; 0.0250 ppm)?
A: 94.7%

Q: What about the Root length (wheat; 0.0250 ppm) of the same compound?
A: 9.74 cm

Q: What about the Root number (wheat; 0.0250 ppm) of the same compound?
A: 5.2

Q: And the Root weight (wheat; 0.0250 ppm)?
A: 0.1143 g

Q: And the Seedling height (wheat; 0.0250 ppm)?
A: 9.56 cm

Q: And the Seedling weight (wheat; 0.0250 ppm)?
A: 0.286 g

Q: And the “Germination rate of wheat” value (wheat; 0.2500 ppm)?
A: 97.3%

Q: And the Root length (wheat; 0.2500 ppm)?
A: 9.15 cm

Q: And the Root number (wheat; 0.2500 ppm)?
A: 5.3

Q: And the Root weight (wheat; 0.2500 ppm)?
A: 0.1036 g

Q: What about the Seedling height (wheat; 0.2500 ppm) of the same compound?
A: 7.51 cm

Q: And the Seedling weight (wheat; 0.2500 ppm)?
A: 0.211 g

Q: What about the Relative content [3, 4] of the same compound?
A: 90.91%

Q: And the Relative content [3, 5]?
A: 90.08%

Q: And the Relative content [3, 6]?
A: 81.82%

Q: For `C=CC1=C(C)c2cc3[n-]c(cc4[n-]c(cc5nc(cc1n2)C(C)=C5C=C)c(C)c4CCC(=O)O)c(CCC(=O)O)c3C.[Cl-].[Fe+3]` [Chlorhematin, chlorhematin, reference compound], which Adventitious root number (mung bean seedlings; 0.01 ppm) is on record?
A: 11.07 root/seedling

Q: What about the “Total adventitious root length” value (mung bean seedlings; 0.01 ppm) of the same compound?
A: 18.03 cm/seedling

Q: What about the Adventitious root number (mung bean seedlings; 0.1 ppm) of the same compound?
A: 10.33 root/seedling

Q: And the “Total adventitious root length” value (mung bean seedlings; 0.1 ppm)?
A: 18.28 cm/seedling

Q: And the Average fruit number (pepper)?
A: 49.2 fruits/plant

Q: And the Single-fruit weight (pepper)?
A: 18.6 g/fruit

Q: What about the Yield per mu (pepper) of the same compound?
A: 2833.3 kg/mu

Q: What about the Yield increase rate (pepper) of the same compound?
A: 5.33%

Q: And the Relative content ([3]; in the dark, 25° C., 0 h)?
A: 100.00%

Q: And the Relative content ([3]; in the dark, 25° C., 1 h)?
A: 99.55%

Q: And the Relative content ([3]; in the dark, 25° C., 2 h)?
A: 99.24%

Q: And the Relative content ([3]; in the dark, 25° C., 3 h)?
A: 98.65%

Q: What about the Relative content ([3]; under light 30,000 lux, 0 h) of the same compound?
A: 100.00%

Q: And the Relative content [3, 4]?
A: 27.73%

Q: And the Relative content ([3]; under light 30,000 lux, 1 h, salts in water, acidic reference in 30% to 50% ethanol, listed as chlorhematin)?
A: less than 30%

Q: What about the Relative content [3, 5] of the same compound?
A: 21.64%

Q: And the Relative content [3, 6]?
A: 20.21%
